Publication PMC8501799, “Constitutive signal bias mediated by the human GHRHR splice variant 1” (Proceedings of the National Academy of Sciences of the …, 2021)

Key:
SV1/Gs = test: Gs activation (G protein NanoBiT assay); format: cell-based, human; settings: HEK293T
Protocol: HEK293T cells were seeded at a density of 30,000 cells per well into 96-well culture plates pretreated with poly-D-lysine hydrobromide. After incubation for 24 h to reach 70% to 80% confluence, the cells were transiently transfected with GHRHR or SV1, Gαs-LgBiT, Gβ1, and Gγ2-SmBiT, at a 2:1:5:5 mass ratio. Twenty-four hours after transfection, cells were washed once and incubated for 30 min at 37 °C with HBSS buffer (pH 7.4) supplemented with 0.1% BSA and 10 mM HEPES. They were then reacted with coelenterazine H (5 μM) for 1 h at RT. Luminescence signals were measured using an Envision plate reader at 15-s intervals (25 °C). […] Data were corrected to baseline and vehicle-treated samples.
All functional study data were analyzed using Prism 7 (GraphPad) and presented as means ± SEM from at least three independent experiments. Concentration-response curves were evaluated with a three-parameter logistic equation. The significance was determined with either two-tailed Student’s t test or one-way ANOVA, and P < 0.05 is considered statistically significant.
Table S1. Effects of SV1 on GHRH-induced Gs activation.
Plasmid pEC50 Emax (% WT GHRHR)
G protein NanoBiT data were analyzed using a three-parameter logistic equation to d et ermine pEC50 and Emax values. pEC50 is the negative logarithm of the molar concentration of agonist that induced half the maximal response. Emax is expressed as a percentage of GHRHR/Gs response.
All values are means ± S.E.M. of five independent experiments (n = 5) conducted in duplicate. One-way ANOVA was used to determine statistical significance (*P < 0.05). WT, wild-type; NA, not

GHRHR Δ32 = biological target: T1, GHRHR Δ32 (Homo sapiens, UniProt Q02643); test: cAMP accumulation; format: cell-based; settings: Table S2; operational model; τ corrected by cell surface expression; relative to WT GHRHR; mean ± SEM
T1 construct: expressed in transfected cells; host or cells: HEK293T
T1 sequence (Q02643 33-423 limits assumed, stated change not applied): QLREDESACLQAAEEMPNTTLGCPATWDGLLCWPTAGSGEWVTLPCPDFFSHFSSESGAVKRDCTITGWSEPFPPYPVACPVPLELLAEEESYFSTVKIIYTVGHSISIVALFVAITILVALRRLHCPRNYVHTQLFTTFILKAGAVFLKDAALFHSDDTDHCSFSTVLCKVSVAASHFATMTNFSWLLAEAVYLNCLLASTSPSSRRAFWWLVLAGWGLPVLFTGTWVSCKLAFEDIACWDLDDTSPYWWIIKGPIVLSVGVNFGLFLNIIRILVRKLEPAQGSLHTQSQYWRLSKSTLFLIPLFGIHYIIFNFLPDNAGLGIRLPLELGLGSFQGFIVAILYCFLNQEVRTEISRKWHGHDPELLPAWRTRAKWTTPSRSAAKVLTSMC
Protocol: Concentration-response curves were evaluated with a three-parameter logistic equation.

22Rv1 cells [1] = test: cAMP accumulation in prostate cancer cells; format: cell-based, human; settings: concentration-response, Fig. 1E; 22Rv1 express high levels of SV1
Protocol: (§1) Spodoptera frugiperda (Sf9) insect cells (Expression Systems) were grown in ESF 921 serum-free medium (Expression Systems) at 27 °C and 120 rpm. HEK293T cells were purchased from American Type Culture Collection (ATCC), cultured in Dulbecco’s modified Eagle’s medium (DMEM; Life Technologies), supplemented with 10% fetal bovine serum (FBS; Gibco), and maintained in a humidified chamber with 5% CO2 at 37 °C. The PC3 prostate cancer cell line (ATCC) was cultured in F12 medium supplemented with 10% FBS and maintained in a humidified chamber with 5% CO2 at 37 °C. 22Rv1 and LNCaP human prostate cancer cells (ATCC) were cultured in Roswell Park Memorial Institute (RPMI)-1640 medium supplemented with 10% FBS and maintained in a humidified atmosphere containing 5% CO2 at 37 °C.
(§2) GHRH-stimulated cAMP accumulation was measured by a LANCE Ultra cAMP kit (PerkinElmer). Briefly, HEK293T cells (24 h after transfection with SV1 or GHRHR) or prostate cancer cells were digested by 0.2% (wt/vol) EDTA and washed once with Dulbecco’s phosphate-buffered saline (PBS). Cells were then resuspended with stimulation buffer (Hanks’ balanced salt solution [HBSS] supplemented with 5 mM HEPES, 0.5 mM IBMX, and 0.1% [wt/vol] bovine serum albumin [BSA], pH 7.4) to a density of 0.6 million cells per milliliter and added to 384-well white plates (3,000 cells per well). […] The reaction was stopped by adding 5 μL Eu-cAMP tracer and 5 μL ULight-anti-cAMP. After 1 h RT incubation, TR-FRET signals (excitation: 320 nm, emission: 615 and 665 nm) were measured by an Envision plate reader (PerkinElmer). cAMP concentrations were interpolated by a standard curve.

LNCaP cells = test: cAMP accumulation in prostate cancer cells; format: cell-based, human; settings: concentration-response, Fig. 1E; LNCaP express high levels of GHRHR
Protocol: as §1, §2

PC3 cells = test: cAMP accumulation in prostate cancer cells; format: cell-based, human; settings: concentration-response, Fig. 1E; PC3 low expression of both
Protocol: as §1, §2

22Rv1 cells [2] = test: ERK1/2 phosphorylation in prostate cancer cells; format: cell-based, human; settings: 1 μM GHRH; among three prostate cancer cell lines
Protocol: as §1
ERK1/2 phosphorylation was detected with the AlphaScreen SureFire ERK1/2 assay kit (PerkinElmer). […] The plate was incubated in the dark at 37 °C for 1 h, after which the fluorescence signal was measured by an Envision plate reader using standard AlphaScreen settings.
The cells were then lysed with radioimmunoprecipitation assay lysis buffer (Sigma-Aldrich) on ice for 5 min and centrifuged at 12,000 rpm for 15 min. Protein concentration of the supernatant was determined by BCA protein assay kit (Beyotime). […]

[3] = system: GHRHR ECD mutants (L34, L62, F82, F85 to alanine); test: cAMP accumulation, ECD alanine mutants of GHRHR; format: cell-based, human; settings: any or all of four ECD residues (L34, L62, F82, F85) to alanine; HEK293T
Protocol: as §2

CC[C@H](C)[C@H](NC(=O)[C@H](C)NC(=O)[C@H](CC(=O)O)NC(=O)[C@H](C)NC(=O)[C@@H](N)Cc1ccc(O)cc1)C(=O)N[C@@H](Cc1ccccc1)C(=O)N[C@H](C(=O)N[C@@H](CC(N)=O)C(=O)N[C@@H](CO)C(=O)N[C@@H](Cc1ccc(O)cc1)C(=O)N[C@@H](CCCNC(=N)N)C(=O)N[C@@H](CCCCN)C(=O)N[C@H](C(=O)N[C@@H](CC(C)C)C(=O)NCC(=O)N[C@@H](CCC(N)=O)C(=O)N[C@@H](CC(C)C)C(=O)N[C@@H](CO)C(=O)N[C@@H](C)C(=O)N[C@@H](CCCNC(=N)N)C(=O)N[C@@H](CCCCN)C(=O)N[C@@H](CC(C)C)C(=O)N[C@@H](CC(C)C)C(=O)N[C@@H](CCC(N)=O)C(=O)N[C@@H](CC(=O)O)C(=O)N[C@H](C(=O)N[C@@H](CCSC)C(=O)N[C@@H](CO)C(=O)N[C@@H](CCCNC(=N)N)C(=O)N[C@@H](CCC(N)=O)C(=O)N[C@@H](CCC(N)=O)C(=O)NCC(=O)N[C@@H](CCC(=O)O)C(=O)N[C@@H](CO)C(=O)N[C@@H](CC(N)=O)C(=O)N[C@@H](CCC(N)=O)C(=O)N[C@@H](CCC(=O)O)C(=O)N[C@@H](CCCNC(=N)N)C(=O)NCC(=O)N[C@@H](C)C(=O)N[C@@H](CCCNC(=N)N)C(=O)N[C@@H](C)C(=O)N[C@@H](CCCNC(=N)N)C(=O)N[C@@H](CC(C)C)C(N)=O)[C@@H](C)CC)C(C)C)[C@@H](C)O [GHRH, growth hormone–releasing hormone]
Emax of Gs activation (SV1/Gs; AUC 0 to 25 min, mean ± SEM, n = 5 in duplicate, * P < 0.05): 56.67 ± 13.79 % WT GHRHR | pEC50 of Gs activation (SV1/Gs; AUC 0 to 25 min, three-parameter logistic, mean ± SEM, n = 5 in duplicate, * P < 0.05): 5.63 ± 0.36 | ability of SV1 to activate Gs (SV1/Gs; compared with GHRHR, Fig. 1A): significantly impaired | ΔLog (τ/KA) (GHRHR Δ32): -3.23 ± 0.04 | cAMP response (22Rv1 cells [1]): either markedly reduced or marginal cAMP responses | cAMP response (LNCaP cells): strongest cAMP response | cAMP response (PC3 cells): either markedly reduced or marginal cAMP responses | pERK1/2 response (22Rv1 cells [2]): markedly stronger and longer pERK1/2 response | GHRHR-elicited cAMP responses [3]: reduced GHRHR-elicited cAMP responses
